Source: patent US11110082B2, “Tyrosine kinase inhibitors” (Rigel Pharmaceuticals, Inc., priority 2016, dated 2021)

Target: T1, MerTK (Homo sapiens, UniProt Q12866)
T1 construct: Seed HUVECs (10K cells/well) in EBM-2 complete media; host or cells: HUVEC (primary human umbilical vein endothelial cells)
T1 sequence (Q12866 21-999): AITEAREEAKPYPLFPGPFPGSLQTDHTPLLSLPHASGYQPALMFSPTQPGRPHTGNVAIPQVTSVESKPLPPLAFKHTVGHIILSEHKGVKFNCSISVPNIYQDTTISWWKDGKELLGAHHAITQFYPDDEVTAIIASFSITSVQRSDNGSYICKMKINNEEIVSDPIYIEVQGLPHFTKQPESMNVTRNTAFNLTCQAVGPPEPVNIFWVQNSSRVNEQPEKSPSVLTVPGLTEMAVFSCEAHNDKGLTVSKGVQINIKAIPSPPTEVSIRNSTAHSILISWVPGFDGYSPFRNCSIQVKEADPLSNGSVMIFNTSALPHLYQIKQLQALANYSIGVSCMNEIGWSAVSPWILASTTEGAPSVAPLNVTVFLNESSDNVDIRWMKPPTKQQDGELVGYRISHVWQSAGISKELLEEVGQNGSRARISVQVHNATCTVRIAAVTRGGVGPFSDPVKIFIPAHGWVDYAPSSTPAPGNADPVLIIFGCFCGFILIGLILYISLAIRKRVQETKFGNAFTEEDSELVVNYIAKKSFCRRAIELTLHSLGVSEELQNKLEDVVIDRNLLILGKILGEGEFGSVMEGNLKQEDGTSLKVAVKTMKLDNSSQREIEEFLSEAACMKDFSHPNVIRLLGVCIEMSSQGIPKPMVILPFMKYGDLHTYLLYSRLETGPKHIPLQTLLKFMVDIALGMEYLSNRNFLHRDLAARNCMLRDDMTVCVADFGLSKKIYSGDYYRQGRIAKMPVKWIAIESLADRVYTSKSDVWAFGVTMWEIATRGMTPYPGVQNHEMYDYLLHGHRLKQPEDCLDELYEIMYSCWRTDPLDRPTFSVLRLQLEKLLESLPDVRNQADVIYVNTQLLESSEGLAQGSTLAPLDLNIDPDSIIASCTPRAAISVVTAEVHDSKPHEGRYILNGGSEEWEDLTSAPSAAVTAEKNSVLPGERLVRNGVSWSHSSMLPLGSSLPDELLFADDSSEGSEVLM
Assay: PAKT HTRF-HUVEC assay (pAkt Ser473 HTRF after anti-human MerTK-XL stimulation)
Assay type: cell-based
Conditions: HUVEC cells, 1 hour compound, stimulated with anti-human MerTK-XL 1 ug/mL for 10 minutes, read-out: inhibition of MerTK
Procedure, shortened: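 Akt Ser473 phosphorylation measured by HTRF in lysates of serum-starved HUVECs. Cells received compound for 1 h at 37° C before a 10-min challenge with antibody-cross-linked anti-MerTK (1 ug/mL final); EC50 derived by curve fit.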

## CCC1(CNc2ncc3c4ccc(N5CCN(C)CC5)cc4c(=O)n([C@H]4CC[C@H](O)CC4)c3n2)CC1 [Compound 94, trans-3-(((1-Ethylcyclopropyl)methyl)amino)-5-(4-hydroxycyclohexyl)-8-(4-methylpiperazin-1-yl)pyrimido[4,5-c]isoquinolin-6(5H)-one]
  EC50: 1100 nM

## O=c1c2cc(CC3CCN(c4ccncc4)CC3)ccc2c2cnc(NCC3CC3)nc2n1[C@H]1CC[C@H](O)CC1 [Compound 218, trans-3-((Cyclopropylmethyl)amino)-5-(4-hydroxycyclohexyl)-8-((1-(pyridin-4-yl)piperidin-4-yl)methyl)pyrimido[4,5-c]isoquinolin-6(5H)-one]
  EC50: 24.2 nM

## CCCCNc1ncc2c3ccc(N4CCN(C)CC4)cc3c(=O)n([C@H]3CC[C@H](O)CC3)c2n1 [Compound 61, trans-3-(Butylamino)-5-(4-hydroxycyclohexyl)-8-(4-methylpiperazin-1-yl)pyrimido[4,5-c]isoquinolin-6(5H)-one]
  EC50: 23.1 nM

## O=c1c2cc(CC3CCNCC3)ccc2c2cnc(NCC3CC3)nc2n1[C@H]1CC[C@H](O)CC1 [Compound 207, trans-3-((Cyclopropylmethyl)amino)-5-(4-hydroxycyclohexyl)-8-(piperidin-4-ylmethyl)pyrimido[4,5-c]isoquinolin-6(5H)-one]
  EC50: 537 nM

## O=c1c2cc(CN3CCN(c4ccncn4)CC3)ccc2c2cnc(NCC3CC3)nc2n1[C@H]1CC[C@H](O)CC1 [Compound 216, trans-3-((Cyclopropylmethyl)amino)-5-(4-hydroxycyclohexyl)-8-((4-(pyrimidin-4-yl)piperazin-1-yl)methyl)pyrimido[4,5-c]isoquinolin-6(5H)-one]
  EC50: 22.5 nM

## CCCCNc1ncc2c3ccc(CN4CCNCC4)cc3c(=O)n([C@H]3CC[C@H](O)CC3)c2n1 [Compound 44, trans-3-(Butylamino)-5-(4-hydroxycyclohexyl)-8-(piperazin-1-ylmethyl)pyrimido[4,5-c]isoquinolin-6(5H)-one]
  EC50: 66 nM

## CCCCNc1ncc2c3ccc(CN4CCN(C)CC4)cc3c(=O)n([C@H]3CC[C@@](C)(O)CC3)c2n1 [Compound 17, cis-3-(Butylamino)-5-(4-hydroxy-4-methylcyclohexyl)-8-((4-methylpiperazin-1-yl)methyl)pyrimido[4,5-c]isoquinolin-6(5H)-one]
  EC50: 68 nM

## O=c1c2cc(CN3CCCCC3)ccc2c2cnc(NCC3CC3)nc2n1[C@H]1CC[C@H](O)CC1 [Compound 202, trans-3-((Cyclopropylmethyl)amino)-5-(4-hydroxycyclohexyl)-8-(piperidin-1-ylmethyl)pyrimido[4,5-c]isoquinolin-6(5H)-one]
  EC50: 47.3 nM

## C[C@]1(O)CC[C@H](n2c(=O)c3cc(CN4CCN(c5ccncc5)CC4)ccc3c3cnc(NCC4CC4)nc32)CC1 [Compound 224, trans-3-((Cyclopropylmethyl)amino)-5-(4-hydroxy-4-methylcyclohexyl)-8-((4-(pyridin-4-yl)piperazin-1-yl)methyl)pyrimido[4,5-c]isoquinolin-6(5H)-one]
  EC50: 28.3 nM

## O=c1c2cc(CN3CCS(=O)(=O)CC3)ccc2c2cnc(NCC3CC3)nc2n1[C@H]1CC[C@H](O)CC1 [Compound 160]
  EC50: 221 nM

## CCCCNc1ncc2c3ccc(CN4CCOCC4)cc3c(=O)n(CC3CCC(N)CC3)c2n1 (centres unmarked) [Compound 9, 5-((4-Aminocyclohexyl)methyl)-3-(butylamino)-8-(morpholinomethyl)pyrimido [4,5-c]isoquinolin-6(5H)-one]
  EC50: 116 nM

## CCCCNc1ncc2c3ccc(N4C[C@@H](C)N(C)C[C@@H]4C)cc3c(=O)n([C@H]3CC[C@H](O)CC3)c2n1 [Compound 78, trans-3-(Butylamino)-5-(4-hydroxycyclohexyl)-8-((2S,5R)-2,4,5-trimethylpiperazin-1-yl)pyrimido[4,5-c]isoquinolin-6(5H)-one]
  EC50: 9 nM

## O=c1c2cc(CN3CCN(C4COC4)CC3)ccc2c2cnc(NCC3CC3)nc2n1[C@H]1CC[C@H](O)CC1 [Compound 35, trans-3-((Cyclopropylmethyl)amino)-5-(4-hydroxycyclohexyl)-8-((4-(oxetan-3-yl)piperazin-1-yl)methyl)pyrimido[4,5-c]isoquinolin-6(5H)-one]
  EC50: 46.7 nM

## CN1CCN(Cc2ccc3c(c2)c(=O)n([C@H]2CC[C@H](OC(N)=O)CC2)c2nc(N(CC4CC4)C(N)=O)ncc32)CC1 [Compound 183]
  EC50: 13800 nM

## CCC(F)(F)CNc1ncc2c3ccc(CN4CCN(C(C)(C)C)CC4)cc3c(=O)n([C@H]3CC[C@H](O)CC3)c2n1 [Compound 198, trans-8-((4-(tert-Butyl)piperazin-1-yl)methyl)-3-((2,2-difluorobutyl)amino)-5-(4-hydroxycyclohexyl)pyrimido[4,5-c]isoquinolin-6(5H)-one]
  EC50: 13.2 nM

## O=c1c2cc(CN3CCN(CC(F)(F)F)CC3)ccc2c2cnc(NCC3CC3)nc2n1[C@H]1CC[C@H](O)CC1 [Compound 40, trans-3-((Cyclopropylmethyl)amino)-5-(4-hydroxycyclohexyl)-8-((4-(2,2,2-trifluoroethyl)piperazin-1-yl)methyl)pyrimido[4,5-c]isoquinolin-6(5H)-one]
  EC50: 50.7 nM

## NC(=O)C1CCN(Cc2ccc3c(c2)c(=O)n([C@H]2CC[C@H](O)CC2)c2nc(NCC4CC4)ncc32)CC1 [Compound 203, trans-1-((3-((Cyclopropylmethyl)amino)-5-(4-hydroxycyclohexyl)-6-oxo-5,6-dihydropyrimido[4,5-c]isoquinolin-8-yl)methyl)piperidine-4-carboxamide]
  EC50: 167 nM

## CCCCNc1ncc2c3ccc(CN4CCNCC4)cc3c(=O)n([C@H]3CC[C@H](O)CC3)c2n1 [Compound 154]
  EC50: 66 nM

## CCC(F)(F)CNc1ncc2c3ccc(CN4CCN(c5ccncc5)CC4)cc3c(=O)n([C@H]3CC[C@H](O)CC3)c2n1 [Compound 221, trans-3-((2,2-Difluorobutyl)amino)-5-(4-hydroxycyclohexyl)-8-((4-(pyridin-4-yl)piperazin-1-yl)methyl)pyrimido[4,5-c]isoquinolin-6(5H)-one]
  EC50: 86.1 nM

## O=c1c2cc(N3CCC(N4CCCC4)CC3)ccc2c2cnc(NCC3CC3)nc2n1[C@H]1CC[C@H](O)CC1 [Compound 99, trans-3-((Cyclopropylmethyl)amino)-5-(4-hydroxycyclohexyl)-8-(4-(pyrrolidin-1-yl)piperidin-1-yl)pyrimido[4,5-c]isoquinolin-6(5H)-one]
  EC50: 94.8 nM

## CCCCNc1ncc2c3ccccc3c(=O)n([C@H]3CC[C@@](C)(O)CC3)c2n1 [Compound 115, cis-3-(Butylamino)-5-(4-hydroxy-4-methylcyclohexyl)pyrimido [4,5-c]isoquinolin-6(5H)-one]
  EC50: 554 nM

## O=c1c2cc(N3CCN(C4COC4)CC3)ccc2c2cnc(NCC3CC3)nc2n1[C@H]1CC[C@H](O)CC1 [Compound 111, trans-3-((Cyclopropylmethyl)amino)-5-(4-hydroxycyclohexyl)-8-(4-(oxetan-3-yl)piperazin-1-yl)pyrimido[4,5-c]isoquinolin-6(5H)-one]
  EC50: 380 nM

## O=c1c2ccccc2c2cnc(NCC3CCC3)nc2n1[C@H]1CC[C@H](O)CC1 [Compound 117, trans-3-((Cyclobutylmethyl)amino)-5-(4-hydroxycyclohexyl)pyrimido [4,5-c]isoquinolin-6(5H)-one]
  EC50: 326 nM

## CCCCNc1ncc2c3ccc(CN4CCN(C)CC4)cc3c(=O)n(C3CCC(C)(O)CC3)c2n1 (stereo not drawn) [Compound 15, trans-3-(Butylamino)-5-(4-hydroxy-4-methylcyclohexyl)-8-((4-methylpiperazin-1-yl)methyl)pyrimido[4,5-c]isoquinolin-6(5H)-one]
  EC50: 5.9 nM

## CCCCNc1ncc2c3ccc(CN4CCN(C)CC4)cc3c(=O)n([C@H]3CC[C@H](NC(=O)OC(C)(C)C)C3)c2n1 [Compound 231, tert-butyl ((1S,3S)-3-(3-(butylamino)-8-((4-methylpiperazin-1-yl)methyl)-6-oxopyrimido[4,5-c]isoquinolin-5(6H)-yl)cyclopentyl)carbamate]
  EC50: 1910 nM

## CCC(F)(F)CNc1ncc2c3ccc(CN4CCN(C)CC4)cc3c(=O)n([C@H]3CC[C@H](O)CC3)c2n1 [Compound 24, trans-3-((2,2-Difluorobutyl)amino)-5-(4-hydroxycyclohexyl)-8-((4-methylpiperazin-1-yl)methyl)pyrimido[4,5-c]isoquinolin-6(5H)-one]
  EC50: 221 nM
